Values quoted from earlier work in US10114931B2, “Pharmaceutical platform technology for the development of natural products” (Sinoveda Canada Inc., priority 2007, dated 2018).
Where two headings read alike, the source gives them in different places.

Key:
[1] = test system: bone loss in early postmenopausal women; settings: 54 mg/day, given orally for a year
[2] = Yan et al., 2008
[3] = in vivo
[4] = in vivo; remark: listed apart in the source
[5] = test system: osteoblast formation; settings: compared with genistein

For `O=c1c(-c2ccc(O)cc2)coc2cc(O)cc(O)c12` [genistein], the “Efficacy compared with hormone replacement therapy” value [1] is listed as “as effective as hormone replacement therapy”.
For `CCC/C=C1\OC(=O)C2=C1CCC=C2` [z-ligustilide], the Bioavailability [2] is given as “less than 3%”.
In the case of `C[C@@H]1O[C@@H](OC[C@H]2O[C@@H](Oc3c(-c4ccc(O)c(O)c4)oc4cc(O)cc(O)c4c3=O)[C@H](O)[C@@H](O)[C@@H]2O)[C@H](O)[C@H](O)[C@H]1O` [Rutin], the “Detection in the blood stream” value [3] is given as “not detected”.
In the case of `O=c1c(-c2ccc(O)cc2)coc2cc(O)ccc12` [daidzein], the Bioavailability [4] is given as “less than 5%” and the “Potency in osteoblast formation in vitro” value [5] is given as “more potent”.
